# In patent US20220251105A1, “METHODS OF TREATING A MK2-MEDIATED DISORDER” (Celgene CAR LLC, priority 2019, published 2022):
# Read-outs that look alike come from different tables or passages of the source.
# Assays:
# [1] = test system: Imiquimod ear swelling in BALB/c mice; experiment: imiquimod-induced ear swelling model; assay type: in vivo, mouse
# [2] = single intravenous dose pharmacokinetics in Sprague Dawley rats; assay type: in vivo; conditions: rat, plasma; for Vd: read-out: Vdss
# Description: In vitro and in vivo studies were conducted to characterize the absorption, PK, distribution, and metabolism of Compound 1. […] Additionally, plasma samples from single dose PK studies in mice and monkeys were evaluated for circulating metabolites.
# [3] = toxicokinetics, single dose and 14-day monkey study; assay type: in vivo; conditions: cynomolgus monkey, plasma, po, monkeys
# Description: In cynomolgus monkeys, a 7-day repeat dose toxicity study was conducted with doses up to 250 mg/kg/day. […] To aid in dose selection for a subsequent pivotal study, an additional study was conducted to determine the maximum feasible dose under optimal feeding conditions in cynomolgus monkeys. […] Dosing monkeys in the fasted state prior to dosing yielded more consistently higher exposures. Therefore, a dose of 375 mg/kg in 0.5% methyl cellulose (400 cps) and 0.1% Tween 80 administered to fasted monkeys was selected for the 14-day repeat-dose phase of the study, and was considered the maximum feasible dose.
# [4] = toxicokinetics, 28-day mouse study; assay type: in vivo; conditions: mice; for AUC / Cmax: Crl:CD1 (ICR), mouse, plasma, po;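 on AUCLST: AUC to the last measurable time point (AUClast)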
# Excerpt: There were no notable sex-related differences in Compound 1 exposure.
# Additionally, toxicokinetic animals received the vehicle or compound in the same manner and dose levels as the main study groups.
# [5] = toxicokinetics, 28-day monkey study; assay type: in vivo, cynomolgus monkey; conditions: for Cmax / AUC: po; for dose proportionality of systemic exposure (AUCLST): monkeys
# healthy adult subjects = experiment: Phase 1 first in human study, safety and tolerability; assay type: in vivo
# Description: The 2 sentinel subjects (chosen according to a randomization scheme) were dosed on Day 1. After at least 24 hours, the safety profile was acceptable to the Investigator (based on, at minimum, adverse events [AEs], concomitant medications and procedures, and any other important clinical observations), and the remainder of the cohort was dosed according to the randomization schedule.
# The same total daily dose was then administered for the remainder of the planned treatment schedule (Days 2 to 14, inclusive).
# Results. This study was a Phase 1, three-part study with a double-blind, placebo-controlled, single ascending dose (SAD) phase, a double-blind multiple ascending dose (MAD) phase, and an open-label cross-over food effect phase. The study enrolled a total of 97 healthy adult subjects.
# [6] = 91-day repeat-dose toxicology study with mice; assay type: in vivo, mouse; conditions: mouse, in vivo, 91-day
# mice = experiment: 91-day repeat-dose toxicology study with mice; assay type: in vivo, mouse; conditions: 750 mg/kg/day
# in vivo = conditions: HLA-B27/Huβ2m transgenic, rat, plasma, po
# Description: (§1) In each disease model, steady-state pharmacokinetics were characterized.
# [7] = plasma exposure in HLA-B27/Huβ2m rats; conditions: HLA B27 Tg rat, 20 mg/kg
# Description: as §1
# [8] = exposure in 91-day mouse toxicology study; conditions: for AUC: mouse, plasma
# [9] = exposure in 28- and 91-day monkey toxicology studies
# [10] = female, 15 mg/kg/day, Study Day 1, female, 15 mg/kg/day
# [11] = female, 15 mg/kg/day, Study Day 21, female, 15 mg/kg/day
# [12] = female, 100 mg/kg/day, Study Day 1, female, 100 mg/kg/day
# [13] = female, 100 mg/kg/day, Study Day 21, female, 100 mg/kg/day
# [14] = female, 750 mg/kg/day, Study Day 1, female, 750 mg/kg/day
# [15] = female, 750 mg/kg/day, Study Day 21, female, 750 mg/kg/day
# [16] = male, 15 mg/kg/day, Study Day 1, male, 15 mg/kg/day
# [17] = male, 15 mg/kg/day, Study Day 21, male, 15 mg/kg/day
# [18] = male, 100 mg/kg/day, Study Day 1, male, 100 mg/kg/day
# [19] = male, 100 mg/kg/day, Study Day 21, male, 100 mg/kg/day
# [20] = male, 750 mg/kg/day, Study Day 1, male, 750 mg/kg/day
# [21] = male, 750 mg/kg/day, Study Day 21, male, 750 mg/kg/day
smiles,measurement,setting,value
CCOCc1cnc(Cl)nc1Oc1ccc2c(ccc3sc4c(c32)NC[C@@H](C)NC4=O)n1 [Compound 1],% Inhibition by ear thickness clinical score,"[1]; 3 mg/kg, from area under the ear thickness-time curve",57% by ear
same,Minimally Efficacious Dose,[1]; endpoint ear thickness,3 mg/kg
same,half-life,"[2]; both sexes, iv, 5 mg/kg, rats, read-out: terminal half-life",≤ 1 h
same,AUC,"[2]; female, single IV 5 mg/kg",3950 ng·h/mL
same,AUC(0-inf),"[2]; female, single IV 5 mg/kg",3960 ng·h/mL
same,clearance,"[2]; female, single IV 5 mg/kg",21.5 mL/min/kg
same,Vd,"[2]; female, single IV 5 mg/kg",0.561 L/kg
same,half-life,"[2]; female, single IV 5 mg/kg, read-out: t1/2,z (converted)",1.1 h
same,AUC,"[2]; male, single IV 5 mg/kg",2020 ng·h/mL
same,AUC(0-inf),"[2]; male, single IV 5 mg/kg",2020 ng·h/mL
same,clearance,"[2]; male, single IV 5 mg/kg",42.2 mL/min/kg
same,Vd,"[2]; male, single IV 5 mg/kg",0.648 L/kg
same,half-life,"[2]; male, single IV 5 mg/kg, read-out: t1/2,z (converted)",0.23 h
same,AUC(0-t),"[3]; 375 mg/kg, 375 mg/kg, fasted, read-out: Mean Day 1 AUC0-t",11500 ng·h/mL
same,AUC(0-t),"[3]; 375 mg/kg, 375 mg/kg, non-fasted, read-out: Mean Day 1 AUC0-t",4060 ng·h/mL
same,AUC(0-t),"[3]; 375 mg/kg/day, fasted, 375 mg/kg/day, read-out: Mean Day 14 AUC0-t",5510 ng·h/mL
same,AUC(0-t),"[3]; 500 mg/kg, 500 mg/kg, fasted, read-out: Mean Day 1 AUC0-t",14300 ng·h/mL
same,AUC(0-t),"[3]; 500 mg/kg, 500 mg/kg, non-fasted, read-out: Mean Day 1 AUC0-t",11400 ng·h/mL
same,AUC,[4]; [10],5360 ng·h/mL
same,Cmax,[4]; [10],2980 ng/mL
same,AUC,[4]; [11],5980 ng·h/mL
same,Cmax,[4]; [11],2970 ng/mL
same,AUC,[4]; [12],40100 ng·h/mL
same,Cmax,[4]; [12],14500 ng/mL
same,AUC,[4]; [13],32800 ng·h/mL
same,Cmax,[4]; [13],12300 ng/mL
same,AUC,[4]; [14],198000 ng·h/mL
same,Cmax,[4]; [14],50300 ng/mL
same,AUC,[4]; [15],135000 ng·h/mL
same,Cmax,[4]; [15],23200 ng/mL
same,AUC,[4]; [16],4410 ng·h/mL
same,Cmax,[4]; [16],2930 ng/mL
same,AUC,[4]; [17],4460 ng·h/mL
same,Cmax,[4]; [17],2420 ng/mL
same,AUC,[4]; [18],29200 ng·h/mL
same,Cmax,[4]; [18],13900 ng/mL
same,AUC,[4]; [19],24900 ng·h/mL
same,Cmax,[4]; [19],11700 ng/mL
same,AUC,[4]; [20],211000 ng·h/mL
same,Cmax,[4]; [20],29800 ng/mL
same,AUC,[4]; [21],92800 ng·h/mL
same,Cmax,[4]; [21],19400 ng/mL
same,dose proportionality of systemic exposure (AUCLST),"[4]; Day 1, 15 to 750 mg/kg/day",approximately dose-proportional manner
same,dose proportionality of systemic exposure (AUCLST),"[4]; Day 21, 15 to 750 mg/kg/day",less than dose-proportional manner
same,AUC(0-t),"[5]; cynomolgus monkey, plasma, oral, female monkeys, read-out: AUC0-24, steady state exposure at the NOAEL",~7840 ng·h/mL
same,Cmax,"[5]; cynomolgus monkey, plasma, monkey, Study Day 1, male, 375 mg/kg/day",1960 ng/mL
same,Cmax,"[5]; cynomolgus, cynomolgus monkey, plasma, monkey, Study Day 21, female, 375 mg/kg/day",810 ng/mL
same,Cmax,"[5]; cynomolgus, cynomolgus monkey, plasma, monkey, Study Day 21, male, 375 mg/kg/day",2340 ng/mL
same,Cmax,"[5]; female, cynomolgus monkey, plasma, 15 mg/kg/day, monkey, Study Day 1, female, 15 mg/kg/day (so in the source)",862 ng/mL
same,AUC,"[5]; female, cynomolgus monkey, plasma, 15 mg/kg/day, monkey, Study Day 1, female, 15 mg/kg/day (so in the source), read-out: AUCLST",3090 ng·h/mL
same,Cmax,"[5]; female, cynomolgus monkey, plasma, 150 mg/kg/day, monkey, Study Day 1, female, 150 mg/kg/day",1390 ng/mL
same,AUC,"[5]; female, cynomolgus monkey, plasma, 150 mg/kg/day, monkey, Study Day 1, female, 150 mg/kg/day, read-out: AUCLST",6330 ng·h/mL
same,AUC,"[5]; female, cynomolgus monkey, plasma, 150 mg/kg/day, monkey, Study Day 21, female, 150 mg/kg/day, read-out: AUCLST",7840 ng·h/mL
same,AUC,"[5]; female, cynomolgus monkey, plasma, 375 mg/kg/day, monkey, Study Day 1, female, 375 mg/kg/day, read-out: AUCLST",16700 ng·h/mL
same,AUC,"[5]; female, cynomolgus monkey, plasma, 375 mg/kg/day, monkey, Study Day 21, female, 375 mg/kg/day, read-out: AUCLST",4220 ng·h/mL
same,Cmax,"[5]; female, cynomolgus, cynomolgus monkey, plasma, 15 mg/kg/day, monkey, Study Day 21, female, 15 mg/kg/day (so in the source)",818 ng/mL
same,AUC,"[5]; female, cynomolgus, cynomolgus monkey, plasma, 15 mg/kg/day, monkey, Study Day 21, female, 15 mg/kg/day (so in the source), read-out: AUCLST",2460 ng·h/mL
same,Cmax,"[5]; female, cynomolgus, cynomolgus monkey, plasma, 150 mg/kg/day, monkey, Study Day 21, female, 150 mg/kg/day",1620 ng/mL
same,Cmax,"[5]; male, cynomolgus monkey, plasma, 15 mg/kg/day, monkey, Study Day 1, male, 15 mg/kg/day (so in the source)",623 ng/mL
same,AUC,"[5]; male, cynomolgus monkey, plasma, 15 mg/kg/day, monkey, Study Day 1, male, 15 mg/kg/day (so in the source), read-out: AUCLST",1750 ng·h/mL
same,Cmax,"[5]; male, cynomolgus monkey, plasma, 15 mg/kg/day, monkey, Study Day 21, male, 15 mg/kg/day (so in the source)",465 ng/mL
same,Cmax,"[5]; male, cynomolgus monkey, plasma, 150 mg/kg/day, monkey, Study Day 1, male, 150 mg/kg/day",1240 ng/mL
same,AUC,"[5]; male, cynomolgus monkey, plasma, 150 mg/kg/day, monkey, Study Day 1, male, 150 mg/kg/day, read-out: AUCLST",5840 ng·h/mL
same,Cmax,"[5]; male, cynomolgus monkey, plasma, 150 mg/kg/day, monkey, Study Day 21, male, 150 mg/kg/day",674 ng/mL
same,AUC,"[5]; male, cynomolgus monkey, plasma, 375 mg/kg/day, male monkeys (375 mg/kg/day), steady-state, read-out: NOAEL with respect to AUCLST",8790 ng·h/mL
same,AUC,"[5]; male, cynomolgus monkey, plasma, 375 mg/kg/day, monkey, Study Day 1, male, 375 mg/kg/day, read-out: AUCLST",14100 ng·h/mL
same,AUC,"[5]; male, cynomolgus, cynomolgus monkey, plasma, 15 mg/kg/day, monkey, Study Day 21, male, 15 mg/kg/day (so in the source), read-out: AUCLST",1280 ng·h/mL
same,AUC,"[5]; male, cynomolgus, cynomolgus monkey, plasma, 150 mg/kg/day, monkey, Study Day 21, male, 150 mg/kg/day, read-out: AUCLST",3950 ng·h/mL
same,AUC,"[5]; male, cynomolgus, cynomolgus monkey, plasma, 375 mg/kg/day, monkey, Study Day 21, male, 375 mg/kg/day, read-out: AUCLST",8790 ng·h/mL
same,dose proportionality of systemic exposure (AUCLST),"[5]; Day 1, 50 to 375 mg/kg/day",approximately dose-proportional manner
same,dose proportionality of systemic exposure (AUCLST),"[5]; Day 20, 50 to 375 mg/kg/day",less than dose-proportional manner
same,most common TEAEs suspected related (skin and subcutaneous tissue disorder),"healthy adult subjects; Part 1, 400-mg dose level, 2 TEAEs in 2 subjects","mild, transient, pruritic, erythematous rash without other organ involvement"
same,severe TEAEs or serious adverse events,"healthy adult subjects; Part 1, single doses 3 mg to 400 mg",no severe TEAEs or serious adverse events (SAEs)
same,TEAEs suspected to be related to Compound 1,"healthy adult subjects; Part 1, single doses 3 mg to 400 mg, of the 22 total TEAEs",5
same,"ALT elevations, other 2 subjects","healthy adult subjects; Part 2, 120 mg",less than 2 × above the upper limit of normal
same,peak ALT elevation,"healthy adult subjects; Part 2, 120 mg, one subject, Day 17",2.3 ×ULN
same,TEAEs suspected to be related to Compound 1,"healthy adult subjects; Part 2, 10 to 150 mg daily for 14 days, of the 42 total TEAEs",9
same,subjects with increase in serum transaminase levels (ALT) above ULN,"healthy adult subjects; Part 2, 120-mg dose cohort, of 6 subjects on active treatment",3
same,transaminase level changes,"healthy adult subjects; Part 2, 150-mg dose cohort, 14-day dosing period",no transaminase level changes were observed in any subject
same,tolerability,"healthy adult subjects; single dose up to 400 mg, 14 days up to 150 mg",well tolerated
same,NOAEL at 91 days,[6],100 mg/kg/day
same,finding on which the NOAEL was based,mice,microscopic findings in the heart
same,AUC,in vivo; 20 mg/kg,2820 ng·h/mL
same,AUC,in vivo; 100 mg/kg,7190 ng·h/mL
same,AUC,[7],2820 ng·h/mL
same,margin of human 150 mg exposure below the mouse NOAEL,[8]; mouse NOAEL AUCLST vs human 150 mg AUCLST,21 fold
same,AUC,[8]; 100 mg/kg/day,28800 ng·h/mL
same,AUC,[8]; 750 mg/kg/day,144000 ng·h/mL
same,AUC,"[9]; cynomolgus monkey, plasma, oral, 375 mg/kg/day",9120 ng·h/mL
same,margin of monkey exposure over human 150-mg dose,[9]; monkey NOAEL AUCLST vs human 150 mg,6.7 fold
